Data as given in patent US7625887B2, “Receptor agonists” (Takeda Pharmaceutical Company Limited, priority 2003, dated 2009).

Tests used:
[1] = tested on: rat intestine primary culture cells; assay: GLP-1 secretion from rat intestine primary culture cells; format: cell-based; details: bile acid 100 μM, 150 min
Experimental: Terminal ileum and colon mucous membrane were removed from rat (Wistar, male, Charles River Japan, Inc.) and subjected to an enzyme treatment to give a cell dispersion according to the following method.
The enzyme solution used was obtained by dissolving 5 mg/ml Collagenase (Sigma), 5 mg/ml Hyaluronidase (Sigma) and 0.5 mg/ml DNaseI (Sigma) in a medium. The medium used was Dulbecco's Modified Eagle Medium (DMEM, Invitrogen) supplemented with 4.5 g/l Glucose, 5% FBS (Invitrogen), 100 units/ml Penicillin (Invitrogen), 100 μg/ml Streptomycin (Invitrogen), 50 μg/ml Gentamicin (Invitrogen) and 20 mM Hepes (pH 7.3). After digestion by the enzyme solution at 37° C., the tissue sections were prepared into dispersed cells by passing through a pipette 7 times and the cells were collected. The collected cells were washed with a buffer (incubation buffer) obtained by adding 5.5 mM Glucose and 0.1% BSA to a modified Krebs-Ringer bicarbonate buffer (KRBH, 116 mM NaCl, 4.7 mM KCl, 1.2 mM KH2PO4, 1.2 mM MgSO4, 2.5 mM CaCl2, 25 mM NaHCO3, 24 mM HEPES, pH 7.3), and preincubated at 37° C. under 5% CO2 for 30 min. 0.1 μM Phorbol ester (Wako), 1% DPPIV inhibitor (Linco) and a test compound were added to the above-mentioned incubation buffer, and the obtained buffer was added to the cells after the aforementioned preincubation and incubated for 150 min. The culture supernatant was collected and cryopreserved. The concentration of GLP-1 released in the culture supernatant was measured using an ELISA kit (Linco).

NCI-H716 cells = assay: GLP-1 secretion from NCI-H716 cell line; format: cell-based, human; details: bile acid 25 μM, 2 hrs; secretion amount in Base was 100%
Experimental: NCI-H716 cells secrete Glucagon-like peptide-1 (GLP-1). GLP-1 is a peptide useful for controlling blood glucose level because it acts on the pancreas to cause secretion of insulin and the like. In the same manner as in Experimental Example 9, NCI-H716 (ATCC) was seeded in a 96 well plate and, after incubation for 2 days, used for the following secretion test. As a buffer for secretion test, modified Krebs-Ringer bicarbonate buffer (KRBH, 116 mM NaCl, 4.7 mM KCl, 1.2 mM KH2PO4, 1.2 mM MgSO4, 2.5 mM CaCl2, 25 mM NaHCO3, 24 mM HEPES, pH 7.3) supplemented with glucose 5.5 mM and BSA 0.1% was used. The cells were washed once with the buffer for secretion test, preincubated at 37° C. under 5% CO2, bile acid diluted with the buffer for secretion test was added and the cells were cultured at 37° C. under 5% CO2 for 2 hrs. The cell culture supernatant was collected, cryopreserved and the GLP-1 content in the supernatant was measured using a GLP-1 measurement EIA kit (Linco) The results are shown in Table 9. In the Table, Base means non-addition of a test compound.

Structure (SMILES): C[C@H](CCC(=O)NCCS(=O)(=O)O)[C@H]1CC[C@H]2[C@@H]3CC[C@@H]4C[C@H](O)CC[C@]4(C)[C@H]3CC[C@]12C [TLCA, taurolithocholic acid, reference compound]
- GLP-1 (% relative to non-addition) [1]: 290 % relative to non-addition
- GLP-1 secretion increase (%) (NCI-H716 cells): 124%
